Experiments:
[1] = system: HPE cells; experiment: 2D difference gel electrophoresis (DIGE) of hormone-treated HPE cells; assay type: cell-based, human; details: 10^−8 M DHT or 10^−5 M flutamide vs (−) hormone
Text: FIGS. 9A-B. Identification of androgen- and flutamide-regulated proteins by 2D difference gel electrophoresis. […] Whole cell proteins were extracted, labeled with the dyes Cy2 (ex 480, em 530), Cy3 (ex 540, em 590), and Cy5 (ex 620, em 680) respectively. The labeled proteins were mixed together and subjected to a pH gradient of pH 4 to pH 7 in the first dimension and separated by PAGE in the second dimension. […] The proteins were excised, subjected to in-gel tryptic digestion and analyzed by MS. The tryptic peptides were identified by searching the protein data bases such as the NCBInr and SWISS- PROT databases. EST databases were also searched with fragmentation data from tandem mass spectrometry when necessary.
Identification of antiandrogen-regulated genes. […] In this study, 8 proteins were identified by tryptic mapping and the sequences verified by partial amino acid sequencing of individual tryptic peptides (FIG. 9B). […] Of particular interest were calreticulin, DJ-1 and non-selenium glutathione peroxidase. Calreticulin binds to the AR DNA binding domain to block AR-activated transcription. Therefore, down-regulation of calreticulin expression would typically facilitate AR binding to the AR binding site to transactivate gene expression (Dedhar et al., 1994). Calreticulin also interacts with integrins during cell attachment and spreading (Coppolino and Dedhar, 1999) and a loss or decrease in calreticulin could potentially increase cell motility and increase HPE cell metastatic potential. The RNA binding protein regulatory subunit DJ-1 has oncogenic potential, transforming NIH3T3 cells in cooperation with ras (Nagakubo et al., 1997). DJ-1 also positively regulates AR-activated transcription by binding PIASx alpha and making it unavailable for the AR:PIASx alpha complex which functions to inhibit AR activation (Takahasi et al., 2001). Non-selenium glutathione peroxidase gene was initially identified as a KGF-regulated gene (Munz et al., 1997) and it is highly expressed in the hyperproliferative epithelium at the wound edge.

[2] = target: endogenous AR (Homo sapiens, UniProt P10275)
endogenous AR, sequence (P10275 whole entry): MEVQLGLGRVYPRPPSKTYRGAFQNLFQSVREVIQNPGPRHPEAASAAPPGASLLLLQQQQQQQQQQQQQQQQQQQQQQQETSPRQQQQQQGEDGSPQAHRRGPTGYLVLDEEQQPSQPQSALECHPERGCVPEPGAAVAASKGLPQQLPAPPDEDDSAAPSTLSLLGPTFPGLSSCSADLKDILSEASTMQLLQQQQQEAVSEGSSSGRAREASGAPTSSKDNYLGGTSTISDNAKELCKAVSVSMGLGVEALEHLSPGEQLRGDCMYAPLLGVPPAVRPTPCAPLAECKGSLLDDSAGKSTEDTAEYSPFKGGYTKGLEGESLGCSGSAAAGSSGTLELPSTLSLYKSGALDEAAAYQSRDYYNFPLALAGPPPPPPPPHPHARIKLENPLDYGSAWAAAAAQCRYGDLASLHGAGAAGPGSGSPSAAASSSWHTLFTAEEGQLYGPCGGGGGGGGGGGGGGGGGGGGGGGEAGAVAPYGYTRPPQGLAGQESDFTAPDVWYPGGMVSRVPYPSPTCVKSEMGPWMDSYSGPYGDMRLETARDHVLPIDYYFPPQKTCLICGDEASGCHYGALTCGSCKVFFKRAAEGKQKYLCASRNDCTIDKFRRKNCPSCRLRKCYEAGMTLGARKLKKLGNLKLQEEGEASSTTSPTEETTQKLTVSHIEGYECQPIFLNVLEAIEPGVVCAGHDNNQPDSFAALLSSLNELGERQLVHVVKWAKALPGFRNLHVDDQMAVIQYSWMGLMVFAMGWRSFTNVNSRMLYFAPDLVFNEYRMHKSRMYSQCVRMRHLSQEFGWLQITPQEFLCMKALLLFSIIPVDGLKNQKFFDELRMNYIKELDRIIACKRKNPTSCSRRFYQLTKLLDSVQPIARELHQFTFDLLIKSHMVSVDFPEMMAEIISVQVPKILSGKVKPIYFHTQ

[3] = target: mutant LNCaP AR (Homo sapiens, UniProt P10275, T878A); details: LNCaP cells, increasing concentrations of R1881 (10^−12 to 10^−6 M)
mutant LNCaP AR, sequence (P10275 whole entry T878A): as the sequence (P10275 whole entry) above, with T878A counted along it

With `C[C@]12CCC(=O)C[C@@H]1CC[C@@H]1[C@@H]2CC[C@]2(C)[C@@H](O)CC[C@@H]12` [DHT] the Calreticulin expression [1] was “increased”, the expression of actin [1] was “down-regulated” and the “expression of annexin V” value [1] was “down-regulated”. The “expression of glutathione S-transferase” value [1] was “down-regulated” and the expression of vimentin [1] was “down-regulated”.

In the case of `C[C@]1(O)CC[C@H]2[C@@H]3CCC4=CC(=O)CCC4=C3C=C[C@@]21C` [R1881], the “ARR2PB-activated CAT gene expression on addition of androgen” value [2] was “did not increase these levels any further”, the “CAT gene expression on addition of androgen” value [2] was “did not increase CAT gene expression any further” and the “concentration at which near maximal CAT activity was observed” value [3] was 10^−8 M.

From patent publication US20050112706A1, “Diagnostic and prognostic methods for prostate cancers” (priority 2002, published 2005)
